Values quoted from earlier work, collected in patent US8642603B2, “Substituted dihydro and tetrahydro oxazolopyrimidinones, preparation and use thereof” (Sanofi, priority 2007, dated 2014).

Assays:
[1] = system: positive and negative symptoms of schizophrenia; conditions: compared to placebo
healthy human subjects = conditions: pretreatment
[2] = system: pentylenetetrazole- and picrotoxin-induced seizures; conditions: in vivo

In the case of `N[C@]1(C(=O)O)[C@H]2[C@@H](C[C@H]1OCc1ccc(Cl)c(Cl)c1)[C@]2(F)C(=O)O` [MGS0039], the antidepressant-like effects (some animal models) is listed as “dose-dependent antidepressant-like effects”.

For `Cc1c(OCc2cccc(-c3ccc(C(=O)O)cc3)c2)cc2c(c1C)C(=O)C(C1CCCC1)C2` (stereo not shown) [biphenyl-indanone A], the “antipsychotic- and anxiolytic-like effects” value (mice) is listed as “antipsychotic- and anxiolytic-like effects”.

For `CSCC[C@H](N)C(=O)N[C@@]1(C(=O)O)CS(=O)(=O)[C@H]2[C@H](C(=O)O)[C@H]21` [LY2140023], the “positive and negative symptoms of schizophrenia” value [1] is given as “statistically significant improvements”.

For `N[C@@]1(C(=O)O)CO[C@H]2[C@H](C(=O)O)[C@H]21` [LY379268], the “effect on REM sleep and fast EEG” value (rat) is given as “suppresses rapid eye movement (REM) sleep and fast EEG”.

For `N[C@@]1(C(=O)O)CC[C@H]2[C@H](C(=O)O)[C@H]21` [LY354740], the “effect on disruption of working memory by ketamine” value (healthy human subjects) is given as “attenuation of the disruptive effects” and the “effect on pentylenetetrazole- and picrotoxin-induced seizures” value [2] is given as “attenuates pentylenetetrazole- and picrotoxin-induced seizures”.

In the case of `N[C@H](C(=O)O)c1ccc(C(=O)O)c(O)c1` [(S)-4-carboxy-3-hydroxyphenylglycine], the “protection against audiogenic seizures” value (DBA/2 mice) is given as “protects against audiogenic seizures”.
